# Source: patent US9096543B2, “Nuclear transport modulators and uses thereof” (Karyopharm Therapeutics Inc., priority 2012, dated 2015)
# “Also recorded” adds a separate entry of the source.
# Tests used:
# Nrf2 pathway = Nrf2 pathway induction in THP-1 cells with or without KEAP1 knockdown (quantitative PCR); type: cell-based, human
# Excerpt: THP-1 (human acute monocytic leukemia cells) cells were used to evaluate the effects of Compound 1 on the Nrf2 pathway in an inflammation environment. Nuclear factor (erythroid-derived 2)-like 2 (Nrf2) is an anti-inflammatory transcription factor. Under normal conditions, Nrf2 is kept in the cytoplasm by Kelch like-ECH associated protein 1 (KEAP1), which degrades Nrf2 by ubiquitination. Nrf2 can also move into the nucleus and back into the cytoplasm as a CRM1 cargo. In the current study, Nrf2 was protected from degradation by knocking down KEAP1 with siRNA. Then, KEAP1-depleted cells were treated with TNFα to induce inflammation, and the ability of Compound 1 to reverse inflammation by up-regulation of the Nrf2 pathway was tested.
# THP-1 (acute monocytic leukemia) cells were plated in two 10 cm culture dishes (6*10^6 cells/dish) with RPMI-1640 medium (Lonza) supplemented with 10% heat-inactivated fetal bovine serum (Invitrogen) and 2-mercaptoethanol to a final concentration of 0.05 mM. Cells in one dish were transfected with 50 nM of KEAP1 siRNA (Life Technologies, Silencer Select, siRNA ID# s18982) using Lipofectamine RNAiMax (Invitrogen), whereas the cells in the other dish were transfected with 50 nM of control siRNA, Block-iT (Invitrogen). Transfected cells were left for 72 h and the KEAP1 knockdown efficiency was calculated with quantitative PCR using a probe against KEAP1.
# Next, the cells from each of the dishes were divided equally into 4 wells in different 6-well plates. One of the wells from each of the plates was pre-treated with 1 μM of Compound 1 for 1 h, followed by 20 ng/mL TNFα for 24 h. The other wells were treated with either 1 μM Compound 1 or 20 ng/mL TNFα or neither for 24 h. Following the treatment, RNA was extracted from the cells using an RNA extraction kit (Qiagen). RNA samples from each treatment group were reverse transcribed and real-time PCR was performed on the corresponding cDNA sequences using probes against Nrf2 and two of its downstream genes, NQO1 and EPHX1. THP-1 cells were transfected with KEAP1 siRNA. 40% knockdown efficiency was achieved. […]
# PMA-induced psoriasis = PMA-induced psoriasis in female BALB/c mice; type: in vivo; conditions: topical
# Experimental: Twenty-four (24) female BALB/c mice, aged 6 to 8 weeks with a body weight between 22 and 30 g were used. The mice were randomized into […]. The grouping of animals was as follows: Group I (Naïve; ethanol), Group II (PMA; ethanol), Group III (PMA; Compound 210 μM) and Group IV (PMA; betamethasone). Twenty (20)μL of PMA (4 μg/20 μL of acetone) was applied topically on the upper surface of pinna of ear of all animals in Group II to Group IV. PMA was applied daily on left ear and on alternate days (M-W-F) on right ear from Day 1 to Day 9. Thirty (30) minutes after application of PMA, vehicle or standard compound (betamethasone) or Compound 2 was applied topically to the ears of animals from different groups. […] Animals were observed daily for a period of 12 days for any treatment related symptoms. Basal ear thickness was recorded in all animals (before application of PMA) using digital screw gauge at time T0 (Day 1). […] Commercially available 100% DMSO (LR Grade) and ethanol (LR Grade) were used to prepare the formulations. PMA was prepared by dissolving 10 mg of PMA in 50.0 mL of acetone. Compound 2 was prepared by dissolving 1.47 mg of Compound 2 in 300 μL of 100% DMSO.
# obese Zucker rats = test: Food intake and body weight in Zucker rats; type: in vivo
# Experimental: Twenty-one (21) male Zucker rats aged 7 months were allocated into 3 groups of N=7 based on equivalent body weights and food intakes. An additional group of N=7 age matched Zucker lean controls were included as a control. Body weights and food and water intakes were measured at approximately the same time each day (14:30-15:30 h). On treatment days, dosing was at 14:30-15:30 h (approximately 2 hours before lights off).
# The Zucker obese and lean controls were orally treated with vehicle (10 mL/kg dose volume; 0.5% Pluronic F68 and 0.5% PVP K29/32 in water) on each weekday. Both Compound 2 (1.5 mg/kg and 3 mg/kg) groups were orally treated on each weekday (10 mL/kg dose volume; 0.5% Pluronic F68 and 0.5% PVP K29/32 in water). Prior to the treatment phase, 4 days baseline data were collected. The treatment phase was for 16 days and a washout phase of 6 days was also included.
# diet-induced obesity = test: Diet-induced obesity (DIO) model; type: in vivo, Sprague-Dawley rats
# Experimental: Male Sprague-Dawley rats of age 2 months were placed on a high fat diet (Research Diets Inc., product code D12492, 60% kcal % fat) for 3 months. A group of age-matched rats were fed normal lab chow (LabDiet 5001, ˜13% kcal % fat), these animals served as controls for DIO group.
# At age 4 months, and 2 months into placement of high fat diet, all rats were allocated into 3 groups of N=7 based on equivalent body weights and food intakes. Body weights and food and water intakes were measured at approximately the same time each day. On treatment days, dosing was at approximately 2 hours before lights off.
# The DIO control group was treated with vehicle (oral, 10 mL/kg dose volume; 0.5% Pluronic F68 and 0.5% PVP K29/32 in water) on each weekday. The Compound 21.5 mg/kg group was orally treated on each weekday throughout the treatment phase (dose 10 mL/kg dose volume; 0.5% Pluronic F68 and 0.5% PVP K29/32 in water). The Compound 2 3 mg/kg group (10 mL/kg dose volume; 0.5% Pluronic F68 and 0.5% PVP K29/32 in water) was orally treated initially once daily on each weekday for week 1, then twice weekly (Monday, Wednesday) for week 2. During treatment weeks 3 and 4, Compound 2 3 mg/kg treatment continued twice weekly, except dosing was on Monday and Thursday.
# Prior to the treatment phase, 3 days baseline data were collected. The treatment phase was for 4 weeks. A washout phase of 10 days was also included.
# Compound 2 was supplied in powder form. […] Active percentage was adjusted using BEW of 1.437 and prepared by dissolving into 0.5% w/v Pluronic F-68 and 0.5% w/v PVP K-29-32 vehicle solution. The vehicle solution was prepared on a weekly basis while Compound 2 was prepared fresh every 2 days and stored at +4° C. Animals were dosed at a volume of 10 mL/kg. Individual doses were calculated based on the most recent body weights to provide the proper mg/kg/day dosage.
SMILES,"EPHX1 expression (Nrf2 pathway; 1 μM Compound 1, presence or absence of TNFα)","Nrf2 expression (Nrf2 pathway; 1 μM Compound 1 alone, with or without KEAP1 knockdown)",Nrf2 signaling (Nrf2 pathway; 1 μM Compound 1 for 24 hrs with 20 ng/mL TNFα),anti-psoriatic activity (PMA-induced psoriasis),"PMA-induced increases in ear thickness and disease activity index (DAI) (PMA-induced psoriasis; 10 μM daily, prominent Days 6-8, diminished Day 10 and beyond)",body weight gain versus Zucker vehicle group (obese Zucker rats; 3 mg/kg oral),"daily food intake and body weight compared to Zucker control group (obese Zucker rats; 1.5-3 mg/kg oral each weekday, 16 day treatment period)","daily food intake and body weight compared to DIO control group (diet-induced obesity; 1.5-3 mg/kg oral, 28 day treatment period)","body weight gain (percentage of body weight change from study day 3) compared to DIO controls (diet-induced obesity; 1.5 and 3 mg/kg, treatment days 7 (study day 10) and 14 (study day 17))","body weight over the washout phase (diet-induced obesity; washout phase, both Compound 2 groups)"
"CC(C)(C)C(=O)NNC(=O)/C=C\n1cnc(-c2cc(C(F)(F)F)cc(C(F)(F)F)c2)n1 [Compound 1, (Z)-3-(3-(3,5-bis(trifluoromethyl)phenyl)-1H-1,2,4-triazol-1-yl)-N′-pivaloylacrylohydrazide]",up-regulated the expression of EPHX1 in the presence or absence of TNFα,did not have any significant effect on Nrf2 expression,up-regulated Nrf2 signaling,,,,,,,
"O=C(/C=C\n1cnc(-c2cc(C(F)(F)F)cc(C(F)(F)F)c2)n1)NNC(=O)CN1CCOCC1 [Compound 2, (Z)-3-(3-(3,5-bis(trifluoromethyl)phenyl)-1H-1,2,4-triazol-1-yl)-N′-(2-morpholinoacetyl)acrylohydrazide]",,,,statistically significant anti-psoriatic activity,"prominent reduction in PMA-induced increases in (i) left and right ear thickness, and (ii) left and right ear DAI",lower weight gain in comparison to the Zucker control group,dose-related decrease in daily food intake and body weight; also recorded: dose dependent decrease in daily food effect,dose-related decrease in daily food intake and body weight; also recorded: decreases daily food intake in a dose dependent manner,significant reduction in weight gain,remained lower than DIO controls
